Each block holds one molecule with its values, some of them ahead of it.
Tests used:
[1] = not told
[2] = tested on: winter wheat Beinong 9549; assay: Winter wheat field experiment, demonstration park of high quality agricultural products center; format: in vivo; details: for Increase rate: vs control; for Average production per mu: winter wheat Beinong 9549, repeated 3 times
Method: Experiments below are preceded with general fertilizing amount, and using the same fertilizing amount and the same fertilizing methods. […] The Agricultural Science Research Institute of […] District, Beijing • D. Qingyundian Station, the Agricultural Science Research Institute of […] District, Bejing • (2) Experimental protocols and production determination of winter wheat in every experimental site […] Production is determined on Jun.

tomato Jinpengshengguan = assay: Tomato production experiment (Experiment 11); format: in vivo
winter wheat 9428 = assay: Winter wheat field experiment, Qingyundian Station; format: in vivo; details: for Production per mu: winter wheat 9428
From the text: (§1) Experiments below are preceded with general fertilizing amount, and using the same fertilizing amount and the same fertilizing methods.

Ventura celery = assay: Celery production experiment
corn Jiyuan No. 1 = assay: Corn field experiment; format: in vivo; details: for Ear weight in the whole area: fresh weight of corn
From the text: Experiments below are preceded with general fertilizing amount, and using the same fertilizing amount and the same fertilizing methods. 2.

winter wheat Jing411 = assay: Winter wheat field experiment, Agricultural Science Research Institute of Daxing District; format: in vivo; details: for Production increasing rate (comparing with control): in vivo; for Average production per mu: winter wheat Jing411
From the text: as §1

eggplant = assay: Production increasing effects on eggplant (Experiment 9); format: in vivo
[3] = comparing with ordinary ammonium bicarbonate (ABC)
[4] = eggplant seedling, 0.0165 kg fertilizer per plant

Average of N2O—N annual emission flux [1]: 71.92 μg N2O/m^3-h | N2O—N annual emission flux range [1]: −197-2867 μg N2O/m^3-h | N2O—N emission flux/nitrogen fertilizer applied [1]: 1.98%
Molecule: NC(N)=O [URA, urea]
Increase rate [2]: 17.07% | Average production per mu [2]: 487 kg | Production increasing rate (tomato Jinpengshengguan; control = 0): 9.80% | Average area production (tomato Jinpengshengguan; during growth of tomato, repeated 6 times): 109.65 kg | Production increasing rate (winter wheat 9428; control = 0): 10.39% | Production increasing rate (winter wheat 9428; general fertilizer = 0): 5.99% | Production per mu (winter wheat 9428): 425 kg | Increasing rate comparing with urea (Ventura celery; equal weight as urea): 0% | Average fresh weight of plants (Ventura celery; equal weight of fertilizers): 11.55 kg/20 plants | Fresh weight of celery per mu (Ventura celery; in vivo): 7703.85 kg | Increase rate comparing with control (Ventura celery; in vivo): 30.2% | Production increased per mu (Ventura celery; over control): 1787.56 kg | Ear weight in the whole area (corn Jiyuan No. 1): 38.1 kg | Production increasing rate comparing with urea (corn Jiyuan No. 1; in vivo): 0% | Production increasing rate (comparing with control) (winter wheat Jing411): 0.28% | Average production per mu (winter wheat Jing411): 328.67 kg

Molecule: ammonium bicarbonate [ABC]
Increasing rate of eggplant fruit weight (eggplant; [3]): 0% | Increasing rate of leaf number (eggplant; [3]): 0% | Increasing rate of plant height (eggplant; [3]): 0% | Leaf number 1 (eggplant; eggplant seedling): 15 number | Leaf number 2 (eggplant; eggplant seedling): 33 number | Leaf number 3 (eggplant; eggplant seedling): 4 number | Leaf number 4 (eggplant; eggplant seedling): 26 number | Leaf number 5 (eggplant; eggplant seedling): 28 number | Leaf number 6 (eggplant; eggplant seedling): 15 number | Leaf number 7 (eggplant; eggplant seedling): 28 number | Plant height 1 (eggplant; [4]): 64 cm | Plant height 2 (eggplant; [4]): 64 cm | Plant height 3 (eggplant; [4]): 32 cm | Plant height 4 (eggplant; [4]): 75 cm | Plant height 5 (eggplant; [4]): 65 cm | Plant height 6 (eggplant; [4]): 61 cm | Plant height 7 (eggplant; [4]): 62 cm | Average height (eggplant; eggplant seedling, 7 plants): 56.72 cm | Average leaf number (eggplant; eggplant seedling, 7 plants): 21.28 number | Eggplant fruit weight (eggplant; in vivo): 1.46 kg | Increasing weight of eggplant fruit (eggplant; over ordinary ammonium bicarbonate (ABC)): 0 kg | Increase rate [2]: 15.63% | Average production per mu [2]: 481 kg | Production increasing rate (winter wheat 9428; control = 0): 3.12% | Production per mu (winter wheat 9428): 397 kg | Ear weight in the whole area (corn Jiyuan No. 1): 39.6 kg | Production increasing rate comparing with ammonium bicarbonate (corn Jiyuan No. 1; in vivo): 0% | Production increasing rate comparing with urea (corn Jiyuan No. 1; in vivo): 4.07% | Production increasing rate (comparing with control) (winter wheat Jing411): 3.33% | Average production per mu (winter wheat Jing411): 338.69 kg

Source: US8328898B2, “Environment-friendly carbon-nano synergistic complex fertilizers” (priority 2007, dated 2012)
